Source: paper PMC3901259, “Characterisation of the Metabolites of 1,8-Cineole Transferred into Human Milk: Concentrations and Ratio of Enantiomers” (Metabolites, 2013)

Key:
[1] = Quantification of 1,8-cineole metabolites in human milk (SAFE, GC-MS, internal standard and matrix calibration) after oral intake of 100 mg 1,8-cineole; format: in vivo; conditions: for Absolute concentration in human milk: single determination
From the text: Human milk samples were provided voluntarily by breastfeeding mothers after intake of the non-prescription pharmaceutical Soledum® (Klosterfrau Healthcare Group, Cologne, Germany). Before the beginning of the study, the participants were informed verbally, as well as in written form, about the study procedure and purpose and they were told that withdrawing from the study was possible at any time without giving any reason. All volunteers gave written consent to the analysis of their milk samples and anonymous publication of the resulting data. The Ethical Committee of the Medical Faculty, University Erlangen-Nuremberg, approved the experimental procedures. Each participant was handed a copy of the Soldeum® package instructions and was advised to read it before capsule intake. They were also advised to withdraw from the study if any negative reactions such as medication allergies or interactions with other drugs they were taking were to be expected. Additionally, the volunteers were informed verbally about potential effects of the pharmaceutical preparation on breastfeeding, i.e. the risk of an altered milk flavour and rejection of the milk by the nursling. Accordingly, if this would happen, the mothers were recommended to feed their babies with stored human milk or formula milk products.
The milk donors were between the ages of 29 and 40 years (mean 34 years). During their participation in the study, their breast milk production had to be normal and in excess of their infants' needs, with no breast infections and no overall medical complaints present. Five participants were primiparous, three were multiparous and the breast milk samples were from 19 weeks to 19 months postpartum. For sampling, either electrical or mechanical breast pumps or manual expression techniques were applied, resulting in sample volumes between 10 and 100 mL. The samples were immediately subjected to sample preparation after a maximum storage time of five hours at 7 °C or were stored in a freezer at −20 °C for up to five days.
The participating volunteers were asked to ingest one Soledum® capsule, containing 100 mg 1,8-cineole, and to wait until they themselves or another person began to notice the eucalyptus-like odour on their breath. […] The donors were instructed to keep notes on the dates of capsule intake, first eucalyptus-like odour on their breath and exact sampling time. Unfortunately it was difficult for some mothers to detect the smell on their breath so they expressed the samples after some time without having noticed the smell, or reported having been unsure about the smell. […] Some of the donors repeated the whole experiment and some expressed more than one sample after the capsule intake, resulting in 14 samples in total, from 8 different mothers.
Extracts containing the volatile fraction of the human milk samples were prepared by Solvent Assisted Flavour Evaporation (SAFE) after addition of deuterated 1,8-cineole as internal standard (solution in dichloromethane), followed by 10 min of stirring, then another addition of dichloromethane (50% v/v), and 30 min of stirring. The resulting stable phase was distilled in the SAFE-apparatus at 50 °C and approximately 1x10^−4 mbar. The volatile fraction of the samples was frozen with liquid nitrogen. After thawing, it consisted of two phases, formed by the dichloromethane and by the water out of the milk. The water phase was extracted three times with dichloromethane, and the solvent phases were combined and dried over anhydrous Na2SO4. Finally the sample extracts were concentrated by microdistillation according to Bemelmans at 50 °C to a total volume of 50 to 200 μL.
For GC-MS analyses, an Agilent MSD quadrupole system (GC 7890A with MSD 5975C, Agilent Technologies, Waldbronn, Germany) coupled with a CIS 4C (cooled injection system) and an MPS 2 auto-sampler (Gerstel GmbH & Co. KG, Duisburg, Germany) were used. […]

[2] = Determination of the ratios of enantiomers of chiral metabolites in human milk on chiral GC capillaries; format: in vivo; conditions: for Percentage E1: B-2b, B-2c of the same parent
From the text: The separation of the chiral metabolites of 1,8-cineole was successfully achieved using different β- or γ-cyclodextrin-based stationary phases (Rt-bDEXsa, Rt-bDEXse, Rt-bDEXsm and Rt-yDEXsa) for gas chromatographic analysis. Table S1, in the supplementary material, lists the usable separation phases and the respective retention indices (determined according to van den Dool and Kratz) for each pair of enantiomers. It was therefore decided to use the following capillaries for the analysis of the human milk samples: Rt-bDEXsm for separation of 2,3-dehydro-, α2,3-epoxy-, 2-oxo-, 3-oxo- and 9-hydroxy-1,8-cineole, and Rt-yDEXsa for separation of α2-hydroxy-, α3-hydroxy- and β2-hydroxy-1,8-cineole, under the GC conditions described in the experimental section.
For GC-MS analyses, an Agilent MSD quadrupole system (GC 7890A with MSD 5975C, Agilent Technologies, Waldbronn, Germany) coupled with a CIS 4C (cooled injection system) and an MPS 2 auto-sampler (Gerstel GmbH & Co. KG, Duisburg, Germany) were used. Data collection and analysis were performed with the MSD ChemStation E.02.00.493 (Agilent Technologies, Inc.) software. Quantification experiments were carried out on DB-FFAP and DB-5 capillaries (30 m length, 0.25 mm inner diameter, 0.25 µm film thickness, Agilent J&W GC Columns, USA), and for monitoring of the ratio of enantiomers the chiral capillaries Rt-bDEXsa, Rt-bDEXse, Rt-bDEXsm and Rt-yDEXsa (30 m length, 0.32 mm inner diameter, 0.25 µm film thickness, Restek GmbH, Bad Homburg, Germany) were utilised. Pre-columns of uncoated, deactivated fused silica (0.53 mm inner diameter, 0.5 to 3.5 m length) were used to ensure that no potentially present low-volatile residues could contaminate the analytical capillaries. The temperature programme of the column oven was as follows: 40 °C for 2 min, 4 °C/min up to 170 °C, 40 °C/min up to 230 °C (Rt-DEX capillaries), 240 °C (DB-FFAP) and 250 °C (DB-5), respectively, and hold time at end temperature of 5 to 10 min. As carrier gas, helium was used at a flow rate of 1.3 mL/min (velocity 41.1 cm/s). Injection of 1 or 2 µL was performed by the auto-sampler.
For the separation of the pairs of enantiomers of the chiral metabolites of 1,8-cineole, four different capillaries (Rt-bDEXsa, Rt-bDEXse, Rt-bDEXsm, and Rt-yDEXsa) were evaluated for optimisation of the peak-to-peak resolution of the enantiomers by injecting a mixture of all the metabolites in a dichloromethane solution and by varying the heating rate. Besides the separation of each pair of enantiomers from each other, it was also important to confirm that no other metabolite coeluted with any one of the enantiomers, because the milk samples would most probably contain all metabolites. Moreover, the separation conditions for the mixture of reference substances were also tested on some human milk sample extracts and modified accordingly, where necessary, to avoid coelution with interfering matrix compounds.
For calculation of the ratio of enantiomers (that is, the relative abundance of each enantiomer to the not separated mixture of enantiomers), the peak area of each enantiomer was divided by the sum of the peak areas of both enantiomers and multiplied by 100. With the known concentrations of the chiral metabolites in each milk sample, the absolute concentration of each single enantiomer was also calculated by multiplying the concentration with the respective percentage.

[3] = design: method as in doi:10.1002/cplu.201200253; conditions: urine after 100 mg 1,8-cineole; cited from earlier work
[4] = design: method as in PMID 20425757; conditions: one volunteer, sage tea, overall intake 1.02 mg 1,8-cineole; cited from earlier work
[5] = sample A-1a (no odour), oral 100 mg 1,8-cineole, values given with (<x) lie beyond calibration range, approximation
[6] = sample A-1b (odour yes), oral 100 mg 1,8-cineole, values given with (<x) are approximations
[7] = sample B-1 (odour yes), oral 100 mg 1,8-cineole, values given with (<x) are approximations
[8] = sample B-2a (no odour), oral 100 mg 1,8-cineole
[9] = sample B-2b (odour yes), oral 100 mg 1,8-cineole, values given with (<x) are approximations
[10] = sample B-2c (no odour), oral 100 mg 1,8-cineole
[11] = sample D-1 (no odour), oral 100 mg 1,8-cineole, values given with (<x) are approximations
[12] = sample D-2 (odour yes), oral 100 mg 1,8-cineole, values given with (<x) are approximations
[13] = sample E-2 (odour yes), oral 100 mg 1,8-cineole, values given with (<x) are approximations
[14] = sample F (no odour), parent ingested two capsules, values given with (<x) are approximations
[15] = sample F (no odour), two capsules
[16] = sample G (odour yes), oral 100 mg 1,8-cineole, values given with (<x) are approximations
[17] = sample H (odour yes), oral 100 mg 1,8-cineole, values given with (<x) are approximations

Compound	Estimated maximum level in human milk (concentration calculated with the last calibration point, in parentheses) ([1]; sample A-1a (no odour))	Absolute concentration in human milk [1, 5]	Absolute concentration in human milk [1, 6]	Absolute concentration in human milk [1, 7]	Absolute concentration in human milk [1, 8]	Absolute concentration in human milk [1, 9]	Absolute concentration in human milk [1, 10]	Absolute concentration in human milk [1, 11]	Absolute concentration in human milk [1, 12]	Absolute concentration in human milk [1, 13]	Absolute concentration in human milk [1, 14]	Estimated maximum level in human milk (concentration calculated with the last calibration point, in parentheses) [1, 15]	Absolute concentration in human milk [1, 16]	Absolute concentration in human milk [1, 17]	Presence in human urine [3]	Estimated maximum level in human milk (concentration calculated with the last calibration point, in parentheses) ([1]; sample A-1b (odour yes))	Estimated maximum level in human milk (concentration calculated with the last calibration point, in parentheses) ([1]; sample B-1 (odour yes))	Estimated maximum level in human milk (concentration calculated with the last calibration point, in parentheses) ([1]; sample B-2b (odour yes))	Estimated maximum level in human milk (concentration calculated with the last calibration point, in parentheses) ([1]; sample D-2 (odour yes))	Estimated maximum level in human milk (concentration calculated with the last calibration point, in parentheses) ([1]; sample H (odour yes))	also measured
CC12C=CC(CC1)C(C)(C)O2 (centres unmarked) [2,3-dehydro-1,8-cineole, 2,3-Dehydro-1,8-cineole]	< 1.26 µg/kg	0.28 µg/kg	4.07 µg/kg	13.65 µg/kg	0.07 µg/kg	2.80 µg/kg	0.57 µg/kg	0.45 µg/kg	5.13 µg/kg	9.63 µg/kg	0.59 µg/kg	< 2.40 µg/kg	21.24 µg/kg	37.69 µg/kg	could not be found						Estimated maximum level in human milk (concentration calculated with the last calibration point, in parentheses) ([1]; sample C (no odour)): < 0.88 µg/kg; Absolute concentration in human milk ([1]; sample C (no odour; very weak odour not caused by 1,8-cineole), oral 100 mg 1,8-cineole, values given with (<x) are approximations): 0.73 µg/kg; Estimated maximum level in human milk (concentration calculated with the last calibration point, in parentheses) ([1]; sample D-1 (no odour)): < 0.97 µg/kg; Estimated maximum level in human milk (concentration calculated with the last calibration point, in parentheses) ([1]; sample E-1 (no odour)): < 1.21 µg/kg; Absolute concentration in human milk ([1]; sample E-1 (no odour), oral 100 mg 1,8-cineole, values given with (<x) are approximations): 0.19 µg/kg; Percentage E1 in single sample (outlier) ([2]; human milk sample B-2a, excluded from Table 3): 100%
CC12CCC(CC1=O)C(C)(C)O2 (centres unmarked) [2-oxo-1,8-cineole]	< 1.57 µg/kg	0.13 µg/kg	0.53 µg/kg	0.91 µg/kg		0.34 µg/kg	0.07 µg/kg		0.85 µg/kg	1.71 µg/kg	2.71 µg/kg	< 3.00 µg/kg		0.86 µg/kg	could not be found	< 1.31 µg/kg	< 1.89 µg/kg	< 2.37 µg/kg	< 2.20 µg/kg	< 2.24 µg/kg	Estimated maximum level in human milk (concentration calculated with the last calibration point, in parentheses) ([1]; sample E-2 (odour yes)): < 2.03 µg/kg; Percentage E2 in single samples (outliers) ([2]; human milk samples B-1, B-2b and B-2c, excluded from Table 3): 100%
CC1(C)OC2(C)CCC1C1OC12 (stereo not drawn) [a2,3-epoxy-1,8-cineole, α2,3-epoxy-1,8-cineole]			2.48 µg/kg	7.65 µg/kg		2.18 µg/kg	0.66 µg/kg	1.35 µg/kg	4.13 µg/kg	4.65 µg/kg			4.52 µg/kg	6.82 µg/kg	could not be found			< 2.45 µg/kg			
CC12CCC(CC1)C(C)(CO)O2 (centres unmarked) [9-hydroxy-1,8-cineole]			0.46 µg/kg	0.87 µg/kg	0.18 µg/kg	15.52 µg/kg	0.15 µg/kg		0.46 µg/kg	16.95 µg/kg			0.73 µg/kg	1.83 µg/kg		< 1.08 µg/kg	< 1.57 µg/kg		< 1.82 µg/kg	< 1.86 µg/kg	Estimated maximum level in human milk (concentration calculated with the last calibration point, in parentheses) ([1]; sample G (odour yes)): < 3.33 µg/kg; Percentage E1 ([2]; one of the three samples B-2a): about 80%; Percentage E1 ([2]; the two other samples of B-2a): about 50%; Concentration in plasma [4]: 5.61 ng/mL
